Test results as given in patent US20240415985A1, “PHOTOCLEAVABLE PRODRUG-BASED NANOMEDICINE FOR IN-SITU MONITORABLE CANCER THERAPY” (The University of Hong Kong, priority 2021, published 2024).
Like-named read-outs stand apart in the source and are kept apart here.

Assays:
[1] = Loading capacity and encapsulation efficiency of IR783 and BC in NPs by HPLC; assay type: physicochemical
Procedure: BODIPY-Cb was dissolved in DMSO (20 μL, 10 mg/mL), and added dropwise to a 300 μL aqueous solution containing IR783 (400 μg/mL) under vigorous vortex. The solution was centrifuged once (2000×g, 10 min, 4° C.) to remove the precipitate. Then the supernatant was centrifuged twice (30,000×g, 30 min, 4° C.), and the resulting precipitate was re-suspended in 300 μL of sterile PBS. Other prodrug/dye NPs were prepared following the same procedure as above. The contents of IR783 and BC in the resulted nanoparticle solution were determined by HPLC analysis. Their loading capacity and encapsulation efficiency were calculated as follow: […]

[2] = Spectrum study of dye degradation under light irradiation (absorbance, fluorescence); assay type: physicochemical; details: for decomposition of dye upon light irradiation: 530 nm, in ICG/BC NPs and IR820/BC NPs (FIGS. 2K-2M)
Procedure: At different time points, the absorbance and fluorescence were measured by spectrometers without any dilution.

[3] = test system: human umbilical vein endothelial cells (HUVECs); assay: Cytotoxicity in dark, biocompatibility evaluation; assay type: cell-based; details: 24 h, up to 100 μM
Procedure: (§1) HCT116 cells were cultured in RPMI-1640 (Gibco) supplemented with 10% FBS (Gibco) and 100 units/mL antibiotics (Penicillin-Streptomycin, Gibco) at 37° C. in a 5% CO2 humidified atmosphere. HUVECs cells were cultured in DMEM (Gibco) supplemented with 10% FBS (Gibco) and 100 units/mL antibiotics (Penicillin-Streptomycin, Gibco) at 37° C. in a 5% CO2 humidified atmosphere.
(§2) The cell viability was evaluated by MTT assay. HCT116 cells were incubated in 96-well microliter plates for 24 h. Then, gradient concentrations of BC prodrug or IR783/BC NPs in RPMI 1640 culture medium were added to the cells. After 6 h incubation, the residual BC or IR783/BC NPs were removed by fresh RPMI 1640 culture medium (100 μL). Then, the cells were irradiated by 530 nm LED light (50 mW/cm^2, 5 min) or incubated at room temperature without light. After another incubation for 24 h, MTT solution (10 μL, 10 mg/mL) was added to the cells to cultivate for 3 h. Next, the cell culture medium was discarded, and DMSO (100 μL) was then added. The absorbance was measured by a multi-mode microplate reader at 490 nm, 570 nm and 630 nm.

[4] = Singlet oxygen detection in solution (SOSG assay); assay type: physicochemical; details: 530 nm, 50 mW/cm^2, 0-1 min; equivalent concentration of BC
Procedure: Singlet oxygen generation was measured both in solutions and cells using SOSG and DCFH-DA as indicator, respectively. […] Besides, the intracellular ^1O2 generation was detected by CLSM. […] Subsequently, the cells were washed with PBS for 3 times and incubated with DCFH-DA (10 μM) for 30 min. The cells were irradiated by LED (530 nm, 50 mW/cm^2, 5 min) for the light irradiation groups. The intracellular fluorescence was observed by CLSM imaging to evaluate the ^1O2 generation.

[5] = In vivo biodistribution by fluorescence imaging in HCT116 tumor-bearing mice; set-up: species or system BALB/c nude mice; details: i.v., imaging 1-24 h post injection
Procedure: The biodistribution of IR783/BC NPs in the HCT116 tumor model was visualized by an in vivo fluorescence imaging system (Cailper PerkinElemer, Waltham, MA, United States). IR783, as a NIR fluorescent dye, was directly detected for living imaging. Mice were treated with free IR783 and IR783/BC NPs via intravenous injection with a dose of IR783 at 100 μg/kg. Fluorescence imaging was performed at 1, 6, 16, 20, and 24 h post injection. At 24 h, mice were euthanized and the tumors and major organs (heart, liver, spleen, lung, kidney) were excised for ex vivo imaging.

[6] = test system: HCT116 cells; assay: Anti-proliferation effect by MTT assay; assay type: cell-based, human
Procedure: as §1, §2

[7] = test system: HCT116 cells; assay: Live/dead staining (Calcein-AM/PI); assay type: cell-based, human; details: BC equivalent 50 μM; groups with or without 530 nm irradiation as stated
Procedure: For live/dead staining, HCT116 cells were seeded in confocal dishes at a density of 10000 cells/well and treated with PBS, free IR783, free BC and IR783/BC NPs with an equivalent concentration of BC at 50 μM. For the irradiation groups, cells were washed by PBS after 6 h and irradiated by 530 nm LED for 5 min. Calcein-AM and PI were then added into the medium and the cells were observed by CLSM without any treatment.

[8] = test system: HCT116 cells; assay: Apoptosis study (Annexin-V FITC/PI, flow cytometry); assay type: cell-based, human; details: 20 μM, with or without light irradiation
Procedure: For apoptosis study, HCT116 cells were seeded in 6-well plates at a density of 50000 cells/well and treated with free Cb or IR783/BC NPs at the equivalent concentration of Cb at 5 μM and 20 μM for 6 h. Then the cells were washed by PBS. The cells in the irradiation group were irradiated by light for 5 min. After 24-h incubation, cells were washed by PBS, collected by trypsin digestion, and stained with Annexin-V/FITC apoptosis kit. ACEA NovoCyte Quanteon flow cytometer (ACEA Biosciences, San Diego, CA, USA) was used for cell study.

[9] = test system: HCT116 xenografts; assay: In vivo antitumor efficacy; set-up: species or system BALB/c nude mice; details: without light irradiation, i.v. Day 0, 4, 8, 12
Procedure: BALB/c nude mice were purchased from SLAC Experiment Animal Co., Ltd. (Shanghai, China) and kept in the Laboratory Animal Center of Fudan University (Shanghai, China). For the subcutaneous tumor model, male BALB/c nude mice were injected with 2×10^7 HCT116 cells subcutaneously. The mice were then further kept in SPF condition for 5-7 days until tumors were observed.
The antitumor efficacy of IR783/BC NPs in the presence or absence of light was investigated in HCT116 tumor mouse model. The mice were randomly divided into six groups when the tumor size reached about 200 mm^3. For different groups, mice were treated with different formulations via i.v. injection at Day 0, 4, 8, and 12: (1) PBS; (2) PBS+hv; (3) IR783+hv; (4) Cb; (5) IR783/BC NPs; (6) IR783/BC NPs+hv. For the irradiation group, light irradiations (100 mW/cm^2, 10 min) were performed 24 h post injection. The dose for each treatment was set as 5 mg/kg. Tumor sizes and body weights were measured in a 2-day interval, and the tumor volume was calculated as V=½×width^2×length. At the end of the experiment (Day 14), all mice were euthanized, and the tumors and major organs were collected and sliced for H&E staining and immunohistochemical analysis.

[10] = refs [17, 39]; cited from earlier work

Molecule: CC1(C)C(=CC=C2CCCC(C=CC3=[N+](CCCCS(=O)(=O)[O-])c4ccccc4C3(C)C)=C2Cl)N(CCCCS(=O)(=O)[O-])c2ccccc21.[Na+] [IR783]
- Encapsulation Efficiency [1]: 0.02%
- Loading Capacity [1]: 1.15%
- NIR fluorescence emission pattern upon light irradiation ([2]; 530 nm light irradiation): did not see similar phenomena
- cytotoxicity in dark [3]: Negligible cytotoxicity
- ^1O2 generation (SOSG fluorescence) [4]: much lower efficiency
- whole-body fluorescence retention after systemic administration [5]: fleetly eliminated

Molecule: boron-dipyrromethene-chlorambucil [BC]
- Encapsulation Efficiency ([1]; listed as BC prodrug): 84.37%
- Loading Capacity ([1]; listed as BC prodrug): 98.85%
- Encapsulation Efficiency ([1]; listed as BODIPY-Cb): 84.37%
- Loading Capacity ([1]; listed as BODIPY-Cb): 98.85%
- IC50 ([6]; 530 nm light irradiation, on BC prodrug basis, read-out: IC50 (cell viability)): 9.24 µM
- cell death in live-dead staining [7]: dead cells presenting red fluorescence were observed

Molecule: CC1(C)C(/C=C/C=C/C=C/C=C2\N(CCCCS(=O)(=O)O)c3ccc4ccccc4c3C2(C)C)=[N+](CCCCS(=O)(=O)[O-])c2ccc3ccccc3c21 [ICG, Indocyanine green]
- decomposition of dye upon light irradiation [2]: decomposed

Molecule: CC1(C)C(=CC=C2CCCC(C=CC3=[N+](CCCCS(=O)(=O)[O-])c4ccc5ccccc5c4C3(C)C)=C2Cl)N(CCCCS(=O)(=O)[O-])c2ccc3ccccc3c21.[Na+] [IR820]
- decomposition of dye upon light irradiation [2]: decomposed

Molecule: O=C(O)CCCc1ccc(N(CCCl)CCCl)cc1 [chlorambucil, Chlorambucil]
- cytotoxicity of free drug ([6]; with/without light irradiation (FIG. 8B)): relatively low
- apoptosis [8]: about 5%
- anti-tumor efficacy [9]: undermined
- hydrolysis in aqueous solution [10]: rapidly hydrolyze
